# Source: patent US8796289B2 (AbbVie Inc., priority 2011, dated 2014)
# Target: GST-tagged-Wee1 kinase (Homo sapiens, UniProt P30291)
# Test: Wee1 time-resolved fluorescence equilibrium binding assay (displacement of Oregon Green-labeled ATP-competitive kinase probe)
# Protocol: Wee1 kinase was assayed using a time-resolved fluorescence equilibrium binding assay monitoring displacement of a rapidly reversible Oregon Green-labeled ATP-competitive kinase probe (N-(2-(2-(2-(4-(4-(5-chloro-4-(2-(1-hydroxycyclobutyl)thiazol-5-yl)-1H-pyrrolo[2,3-b]pyridin-2-yl)phenyl)piperazin-1-yl)ethoxy)ethoxy)ethyl)-2′,7′-difluoro-3′,6′-dihydroxy-3-oxo-3H-spiro[isobenzofuran-1,9′-xanthene]-5-carboxamide) by competitive Wee1 inhibitors.
# Chain of GST-tagged-Wee1 kinase (P30291 whole entry): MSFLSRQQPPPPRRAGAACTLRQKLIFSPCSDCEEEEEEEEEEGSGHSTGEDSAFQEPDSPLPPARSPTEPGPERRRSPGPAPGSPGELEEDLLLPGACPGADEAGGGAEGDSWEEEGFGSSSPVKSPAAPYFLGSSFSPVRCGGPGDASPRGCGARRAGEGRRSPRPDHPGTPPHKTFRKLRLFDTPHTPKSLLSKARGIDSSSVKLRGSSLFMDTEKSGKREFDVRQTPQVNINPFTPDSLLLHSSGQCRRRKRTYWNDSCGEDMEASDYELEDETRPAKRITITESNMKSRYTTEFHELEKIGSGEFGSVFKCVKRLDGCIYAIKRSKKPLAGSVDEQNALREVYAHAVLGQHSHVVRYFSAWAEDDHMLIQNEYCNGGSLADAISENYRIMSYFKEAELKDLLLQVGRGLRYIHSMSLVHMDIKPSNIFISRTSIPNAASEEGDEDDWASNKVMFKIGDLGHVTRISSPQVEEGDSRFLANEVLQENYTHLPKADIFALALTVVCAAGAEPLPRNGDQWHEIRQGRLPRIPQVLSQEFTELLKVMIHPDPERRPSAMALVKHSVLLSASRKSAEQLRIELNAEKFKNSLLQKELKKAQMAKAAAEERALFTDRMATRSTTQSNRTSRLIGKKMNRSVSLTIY
row,Ki [nM],Structure (SMILES)
1,0.16,"Cc1cccc(Cl)c1-n1nc(C)c2nc(Nc3ccc4c(c3)CNCC4)ncc2c1=O [Example 495, 6-(2-chloro-6-methylphenyl)-8-methyl-2-(1,2,3,4-tetrahydroisoquinolin-7-ylamino)pyrimido[4,5-d]pyridazin-5(6H)-one]"
2,0.34,"Cc1cccc(Cl)c1-n1nc(C)c2nc(Nc3ccc4c(c3)CCNC4)ncc2c1=O [Example 496, 6-(2-chloro-6-methylphenyl)-8-methyl-2-(1,2,3,4-tetrahydroisoquinolin-6-ylamino)pyrimido[4,5-d]pyridazin-5(6H)-one]"
3,0.26,"Cc1cccc(Cl)c1-n1nc(C)c2nc(Nc3ccc4c(c3)CNCC4(C)C)ncc2c1=O [Example 497, 6-(2-chloro-6-methylphenyl)-2-[(4,4-dimethyl-1,2,3,4-tetrahydroisoquinolin-7-yl)amino]-8-methylpyrimido[4,5-d]pyridazin-5(6H)-one]"
4,0.23,"Cc1cccc(Cl)c1-n1nc(C)c2nc(Nc3ccc4c(c3)CN(C)CC4(C)C)ncc2c1=O [Example 498, 6-(2-chloro-6-methylphenyl)-8-methyl-2-[(2,4,4-trimethyl-1,2,3,4-tetrahydroisoquinolin-7-yl)amino]pyrimido[4,5-d]pyridazin-5(6H)-one]"
5,0.21,"Cc1cccc(Cl)c1-n1nc(C)c2nc(Nc3ccc4c(c3)CN(CCO)CC4)ncc2c1=O [Example 499, 6-(2-chloro-6-methylphenyl)-2-{[2-(2-hydroxyethyl)-1,2,3,4-tetrahydroisoquinolin-7-yl]amino}-8-methylpyrimido[4,5-d]pyridazin-5(6H)-one]"
6,0.51,"Cc1cccc(Cl)c1-n1nc(C)c2nc(Nc3ccc(N4CCN(CCCN(C)C)CC4)cc3)ncc2c1=O [Example 500, 6-(2-chloro-6-methylphenyl)-2-[(4-{4-[3-(dimethylamino)propyl]piperazin-1-yl}phenyl)amino]-8-methylpyrimido[4,5-d]pyridazin-5(6H)-one]"
7,0.32,"Cc1cccc(Cl)c1-n1nc(C)c2nc(Nc3ccc(NC4CCN(C)CC4)cc3)ncc2c1=O [Example 501, 6-(2-chloro-6-methylphenyl)-8-methyl-2-({4-[(1-methylpiperidin-4-yl)amino]phenyl}amino)pyrimido[4,5-d]pyridazin-5(6H)-one]"
8,0.36,"Cc1cccc(Cl)c1-n1nc(C)c2nc(Nc3ccc(OC4CCN(C)CC4)cc3)ncc2c1=O [Example 502, 6-(2-chloro-6-methylphenyl)-8-methyl-2-({4-[(1-methylpiperidin-4-yl)oxy]phenyl}amino)pyrimido[4,5-d]pyridazin-5(6H)-one]"
9,0.1,"Cc1nn(-c2c(Cl)cccc2Cl)c(=O)c2cnc(Nc3ccc(OC4CCN(C)CC4)cc3)nc12 [Example 503, 6-(2,6-dichlorophenyl)-8-methyl-2-({4-[(1-methylpiperidin-4-yl)oxy]phenyl}amino)pyrimido[4,5-d]pyridazin-5(6H)-one]"
10,3.7,"Cc1nn(-c2c(Cl)cccc2Cl)c(=O)c2cnc(Nc3cccc(N4CCCCC4)c3)nc12 [Example 504, 6-(2,6-dichlorophenyl)-8-methyl-2-{[3-(piperidin-1-yl)phenyl]amino}pyrimido[4,5-d]pyridazin-5(6H)-one]"
11,2.7,"Cc1nn(-c2c(Cl)cccc2Cl)c(=O)c2cnc(Nc3cccc(N4CCOCC4)c3)nc12 [Example 505, 6-(2,6-dichlorophenyl)-8-methyl-2-{[3-(morpholin-4-yl)phenyl]amino}pyrimido[4,5-d]pyridazin-5(6H)-one]"
12,0.54,"Cc1nn(-c2c(Cl)cccc2Cl)c(=O)c2cnc(Nc3cccc(N4CCNCC4)c3)nc12 [Example 506, 6-(2,6-dichlorophenyl)-8-methyl-2-{[3-(piperazin-1-yl)phenyl]amino}pyrimido[4,5-d]pyridazin-5(6H)-one]"
13,2.4,"Cc1nn(-c2c(Cl)cccc2Cl)c(=O)c2cnc(Nc3cccc(N4CCN(CCCCl)CC4)c3)nc12 [Example 507, 2-({3-[4-(3-chloropropyl)piperazin-1-yl]phenyl}amino)-6-(2,6-dichlorophenyl)-8-methylpyrimido[4,5-d]pyridazin-5(6H)-one]"
14,2,"Cc1nn(-c2c(Cl)cccc2Cl)c(=O)c2cnc(Nc3cccc(N4CCN(C5CCC5)CC4)c3)nc12 [Example 508, 2-{[3-(4-cyclobutylpiperazin-1-yl)phenyl]amino}-6-(2,6-dichlorophenyl)-8-methylpyrimido[4,5-d]pyridazin-5(6H)-one]"
15,1.2,"Cc1nn(-c2c(Cl)cccc2Cl)c(=O)c2cnc(Nc3cccc(N4CCN(C5CCOCC5)CC4)c3)nc12 [Example 509, 6-(2,6-dichlorophenyl)-8-methyl-2-({3-[4-(tetrahydro-2H-pyran-4-yl)piperazin-1-yl]phenyl}amino)pyrimido[4,5-d]pyridazin-5(6H)-one]"
16,1.1,"Cc1nn(-c2c(Cl)cccc2Cl)c(=O)c2cnc(Nc3cccc(N4CCN(CCCO)CC4)c3)nc12 [Example 510, 6-(2,6-dichlorophenyl)-2-({3-[4-(3-hydroxypropyl)piperazin-1-yl]phenyl}amino)-8-methylpyrimido[4,5-d]pyridazin-5(6H)-one]"

row,Ki [nM],Structure (SMILES)
1,0.46,"Cc1nn(-c2c(Cl)cccc2Cl)c(=O)c2cnc(Nc3cccc(N4CCN(C)CC4)c3)nc12 [Example 511, 6-(2,6-dichlorophenyl)-8-methyl-2-{[3-(4-methylpiperazin-1-yl)phenyl]amino}pyrimido[4,5-d]pyridazin-5(6H)-one]"
2,1.4,"Cc1nn(-c2c(Cl)cccc2Cl)c(=O)c2cnc(Nc3cccc(N4CCN(C5COC5)CC4)c3)nc12 [Example 512, 6-(2,6-dichlorophenyl)-8-methyl-2-({3-[4-(oxetan-3-yl)piperazin-1-yl]phenyl}amino)pyrimido[4,5-d]pyridazin-5(6H)-one]"
3,1.1,"Cc1nn(-c2c(Cl)cccc2Cl)c(=O)c2cnc(Nc3cccc(NCCN4CCOCC4)c3)nc12 [Example 513, 6-(2,6-dichlorophenyl)-8-methyl-2-[(3-{[2-(morpholin-4-yl)ethyl]amino}phenyl)amino]pyrimido[4,5-d]pyridazin-5(6H)-one]"
4,0.19,"Cc1nn(-c2c(Cl)cccc2Cl)c(=O)c2cnc(Nc3cccc(N4CCN(CCCN(C)C)CC4)c3)nc12 [Example 515, 6-(2,6-dichlorophenyl)-2-[(3-{4-[3-(dimethylamino)propyl]piperazin-1-yl}phenyl)amino]-8-methylpyrimido[4,5-d]pyridazin-5(6H)-one]"
5,0.36,"Cc1nn(-c2c(Cl)cccc2Cl)c(=O)c2cnc(Nc3cccc(OC4CCN(C)CC4)c3)nc12 [Example 516, 6-(2,6-dichlorophenyl)-8-methyl-2-({3-[(1-methylpiperidin-4-yl)oxy]phenyl}amino)pyrimido[4,5-d]pyridazin-5(6H)-one]"
6,0.24,"Cc1nn(-c2c(Cl)cccc2Cl)c(=O)c2cnc(Nc3ccc(N4CCN(CCCN(C)C)CC4)cc3)nc12 [Example 517, 6-(2,6-dichlorophenyl)-2-[(4-{4-[3-(dimethylamino)propyl]piperazin-1-yl}phenyl)amino]-8-methylpyrimido[4,5-d]pyridazin-5(6H)-one]"
7,0.7,"Cc1nn(-c2ccccc2Cl)c(=O)c2cnc(Nc3ccc(N4CCN(CCCN(C)C)CC4)cc3)nc12 [Example 518, 6-(2-chlorophenyl)-2-[(4-{4-[3-(dimethylamino)propyl]piperazin-1-yl}phenyl)amino]-8-methylpyrimido[4,5-d]pyridazin-5(6H)-one]"
8,0.75,"Cc1nn(-c2c(Cl)cccc2Cl)c(=O)c2cnc(Nc3cccc(C(=O)N4CCC(N(C)C)CC4)c3)nc12 [Example 519, 6-(2,6-dichlorophenyl)-2-[(3-{[4-(dimethylamino)piperidin-1-yl]carbonyl}phenyl)amino]-8-methylpyrimido[4,5-d]pyridazin-5(6H)-one]"
9,0.45,"Cc1nn(-c2c(Cl)cccc2Cl)c(=O)c2cnc(Nc3cccc(C(=O)NC4CCC(N(C)C)CC4)c3)nc12 (stereo not shown) [Example 520, 3-{[6-(2,6-dichlorophenyl)-8-methyl-5-oxo-5,6-dihydropyrimido[4,5-d]pyridazin-2-yl]amino}-N-[4-(dimethylamino)cyclohexyl]benzamide]"
10,0.13,"Cc1nn(-c2c(Cl)cccc2Cl)c(=O)c2cnc(Nc3cccc(NC4CCN(C)CC4)c3)nc12 [Example 522, 6-(2,6-dichlorophenyl)-8-methyl-2-({3-[(1-methylpiperidin-4-yl)amino]phenyl}amino)pyrimido[4,5-d]pyridazin-5(6H)-one]"
11,0.5,"Cc1nn(-c2c(Cl)cccc2Cl)c(=O)c2cnc(Nc3cccc(C(=O)NC4CCN(C)CC4)c3)nc12 [Example 523, 3-{[6-(2,6-dichlorophenyl)-8-methyl-5-oxo-5,6-dihydropyrimido[4,5-d]pyridazin-2-yl]amino}-N-(1-methylpiperidin-4-yl)benzamide]"
12,0.3,"Cc1cccc(Cl)c1-n1nc(C)c2nc(Nc3ccc(NC4CCNCC4)cc3)ncc2c1=O [Example 524, 6-(2-chloro-6-methylphenyl)-8-methyl-2-{[4-(piperidin-4-ylamino)phenyl]amino}pyrimido[4,5-d]pyridazin-5(6H)-one]"
13,0.2,"Cc1nn(-c2c(Cl)cccc2Cl)c(=O)c2cnc(Nc3ccc(NC4CCNCC4)cc3)nc12 [Example 525, 6-(2,6-dichlorophenyl)-8-methyl-2-{[4-(piperidin-4-ylamino)phenyl]amino}pyrimido[4,5-d]pyridazin-5(6H)-one]"
14,0.48,"Cc1nn(-c2ccccc2Cl)c(=O)c2cnc(Nc3ccc(NC4CCNCC4)cc3)nc12 [Example 526, 6-(2-chlorophenyl)-8-methyl-2-{[4-(piperidin-4-ylamino)phenyl]amino}pyrimido[4,5-d]pyridazin-5(6H)-one]"
15,2.8,"Cc1nn(-c2c(Cl)cccc2Cl)c(=O)c2cnc(Nc3cccc(C(=O)N4CCN(CCO)CC4)c3)nc12 [Example 527, 6-(2,6-dichlorophenyl)-2-[(3-{[4-(2-hydroxyethyl)piperazin-1-yl]carbonyl}phenyl)amino]-8-methylpyrimido[4,5-d]pyridazin-5(6H)-one]"
